Values after ≈ are worked out from the molar mass of the structure shown.
What was measured:
physchem [1] = details: Residual solubility L-Methionine
Experimental: The amount of product in the fermentation medium or in the different downstream process fluxes such as supernatant, permeate or mother liquors of crystallization can be determined using a number of methods known in the art, for example, high performance liquid chromatography (HPLC) or gas chromatography (GC). For example the quantity of methionine obtained in the medium is measured by HPLC after OPA/FMOC derivatization using L-methionine (Fluka, Ref 64319) as a standard.
Different solvents were assayed on the fermentation concentrated supernatant issued from step ii) with the same ratio of 70% (solvent/(methionine containing fraction+solvent), in weight).

physchem [2] = experiment: physchem
Experimental: The methionine solubility at 35° C. is approximately 70 g/L. If the solution is concentrated to approximately 250 g/L, under a vacuum ensuring a temperature of 35° C., the solid methionine recovery yield is >70%. Under these conditions, and by virtue of the removal of the soluble impurities, the solid methionine crystallizes in the form of spongy spheres which are easy to separate from the mother liquors.
The fermentation supernatant issued from step ii) was concentrated to approximately 250 g·L^−1 and ethanol has been added at different proportions 0%, 30% and 70% (corresponding to the ratio solvent/(methionine containing fraction+solvent) in weight). The theoretical yield of recovery has been determined in function of ethanol content.

solubility (physchem [1]; concentrated fermentation supernatant with added solvent, 4 °C, aqueous with cosolvent or surfactant or cyclodextrin, Ethanol, ratio 70% by weight): 4000 to 5000 µg/mL
solubility (physchem [1]; concentrated fermentation supernatant with added solvent, 4 °C, aqueous with cosolvent or surfactant or cyclodextrin, Isopropanol, ratio 70% by weight): 4000 to 5000 µg/mL
solubility (physchem [1]; concentrated fermentation supernatant with added solvent, 4 °C, aqueous with cosolvent or surfactant or cyclodextrin, Methanol, ratio 70% by weight): 5000 to 6000 µg/mL
solubility (physchem [1]; concentrated fermentation supernatant with added solvent, aqueous with cosolvent or surfactant or cyclodextrin, 2-Butanone, ratio 70% by weight, room temperature): > 15000 µg/mL
solubility (physchem [1]; concentrated fermentation supernatant with added solvent, aqueous with cosolvent or surfactant or cyclodextrin, Acetonitrile, ratio 70% by weight, room temperature): 5500 to 6500 µg/mL
solubility (physchem [1]; concentrated fermentation supernatant with added solvent, aqueous with cosolvent or surfactant or cyclodextrin, Ethanol, ratio 70% by weight, room temperature): 5000 to 6000 µg/mL
solubility (physchem [1]; concentrated fermentation supernatant with added solvent, aqueous with cosolvent or surfactant or cyclodextrin, Isopropanol, ratio 70% by weight, room temperature): 5000 to 6000 µg/mL
solubility (physchem [1]; concentrated fermentation supernatant with added solvent, aqueous with cosolvent or surfactant or cyclodextrin, Methanol, ratio 70% by weight, room temperature): 7000 to 8000 µg/mL
solubility (physchem [1]; concentrated fermentation supernatant, plasma or biological fluid, no solvent (Reference), room temperature): 65000 µg/mL (≈ 436 mM)
solubility (physchem [2]; 35 °C): ~70000 µg/mL (≈ 469 mM)
solubility (physchem [2]; 37 °C): ~70000 µg/mL (≈ 469 mM)
Compound: CSCC[C@H](N)C(=O)O [L-methionine]

From US20180355390A1, “Method to produce L-methionine by a fermentative production” (Evonik Degussa GmbH, priority 2016, published 2018)
